Values of other authors in US20020010202A1, “Combinations of prostaglandins and brimonidine or derivatives thereof” (Allergan Sales, Inc., priority 1994, published 2002).

Assays:
[1] = pressure rise with microkeratomes in LASIK
[2] = in vivo
[3] = adjunctive to timolol in patients; statistically significant

Row | SMILES | nerve fiber thinning [1] | neuroprotection in the eye [2] | IOP-lowering effect [3] | adverse effects (in vivo) | duration of IOP decrease (in vivo) [h] | mean decrease in IOP (topically active carbonic anhydrase inhibitor) [%]
1 | Brc1c(NC2=NCCN2)ccc2nccnc12 [Brimonidine] | lessened or totally prevented | exhibited neuroprotective effects in the eye | about 20% | – | – | –
2 | CCN[C@H]1C[C@H](C)S(=O)(=O)c2sc(S(N)(=O)=O)cc21 [MK 507] | – | – | – | blanching of the conjunctiva, minimal mydriasis and eyelid retraction | ≤ 12 | 25
3 | CC(C)(C)NC[C@H](O)COc1nsnc1N1CCOCC1 [timolol, (S)-1-tert-Butylamino-3-[(4-morpholino-1,2,5-thiadiazol-3-yl)oxy]-2-propanol] | – | did not exhibit neuroprotection | – | – | – | –
